In the supplement of paper PMC10307832:

Legend:
Assay in all cases: relative viability (nuclei count vs DMSO), 5 days (fraction); higher = more cells survive
Bexarotene + Navitoclax = compound: C=C(c1ccc(C(=O)O)cc1)c1cc2c(cc1C)C(C)(C)CCC2(C)C [Bexarotene] + CC1(C)CCC(c2ccc(Cl)cc2)=C(CN2CCN(c3ccc(C(=O)NS(=O)(=O)c4ccc(N[C@H](CCN5CCOCC5)CSc5ccccc5)c(S(=O)(=O)C(F)(F)F)c4)cc3)CC2)C1 [Navitoclax] (partner 0.5 µM)
Outline: (§1)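 After 5 days of treatment, lung cancer cells in 1536-well plates were fixed and stained in a single step (final 0.05% Triton X-100, 1% formaldehyde, 1 ug/ml Hoechst) and their nuclei counted on 4× images. Treatment had been applied by pin tool the day after seeding as one drug alone or as a fixed anchor-drug dose with five library-drug doses (not always all listed) in √10 steps. Relative viability is the nuclei count of treated wells divided by that of vehicle wells, and values are medians of duplicate plates.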

Bexarotene + Tozasertib = compound: C=C(c1ccc(C(=O)O)cc1)c1cc2c(cc1C)C(C)(C)CCC2(C)C [Bexarotene] + Cc1cc(Nc2cc(N3CCN(C)CC3)nc(Sc3ccc(NC(=O)C4CC4)cc3)n2)n[nH]1 [Tozasertib] (partner 0.1 µM)
Outline: as §1

Bexarotene + Vorinostat = compound: C=C(c1ccc(C(=O)O)cc1)c1cc2c(cc1C)C(C)(C)CCC2(C)C [Bexarotene] + O=C(CCCCCCC(=O)Nc1ccccc1)NO [Vorinostat] (partner 1 µM)
Outline: as §1

Bexarotene + Crizotinib = compound: C=C(c1ccc(C(=O)O)cc1)c1cc2c(cc1C)C(C)(C)CCC2(C)C [Bexarotene] + C[C@@H](Oc1cc(-c2cnn(C3CCNCC3)c2)cnc1N)c1c(Cl)ccc(F)c1Cl [Crizotinib] (partner 1 µM)
Outline: as §1

Cell Line | relative viability (Bexarotene + Navitoclax; first compound 0.08 µM) | relative viability (Bexarotene + Navitoclax; first compound 0.253 µM) | relative viability (Bexarotene + Navitoclax; first compound 0.8 µM) | relative viability (Bexarotene + Navitoclax; first compound 2.53 µM) | relative viability (Bexarotene + Navitoclax; first compound 8 µM) | relative viability (Bexarotene + Tozasertib; first compound 0.08 µM) | relative viability (Bexarotene + Tozasertib; first compound 0.253 µM) | relative viability (Bexarotene + Tozasertib; first compound 0.8 µM) | relative viability (Bexarotene + Tozasertib; first compound 2.53 µM) | relative viability (Bexarotene + Tozasertib; first compound 8 µM) | relative viability (Bexarotene + Vorinostat; first compound 0.08 µM) | relative viability (Bexarotene + Vorinostat; first compound 0.253 µM) | relative viability (Bexarotene + Vorinostat; first compound 0.8 µM) | relative viability (Bexarotene + Vorinostat; first compound 2.53 µM) | relative viability (Bexarotene + Vorinostat; first compound 8 µM) | relative viability (Bexarotene + Crizotinib; first compound 0.08 µM) | relative viability (Bexarotene + Crizotinib; first compound 0.253 µM) | relative viability (Bexarotene + Crizotinib; first compound 0.8 µM) | relative viability (Bexarotene + Crizotinib; first compound 2.53 µM) | relative viability (Bexarotene + Crizotinib; first compound 8 µM)
NCI-H322M | 1.19 | 1.33 | 1.17 | 1.19 | 1.26 | 0.508 | 0.505 | 0.488 | 0.475 | 0.445 | 0.978 | 0.983 | 0.945 | 0.757 | 0.934 | 0.829 | 1.06 | 0.87 | 0.93 | 1.04
NCI-H1666 | 0.98 | 0.922 | 0.864 | 0.897 | 0.723 | 0.658 | 0.611 | 0.52 | 0.558 | 0.668 | 0.815 | 0.959 | 0.829 | 0.916 | 0.791 | 1.04 | 0.897 | 0.769 | 0.869 | 0.952
NCI-H2087 | 1.11 | 0.944 | 1.1 | 0.848 | 0.759 | 0.254 | 0.314 | 0.211 | 0.179 | 0.258 | 1.07 | 0.765 | 0.642 | 1.09 | 0.841 | 0.854 | 1.14 | 0.716 | 0.827 | 0.867
LU99A | 0.931 | 0.828 | 0.826 | 0.895 | 0.89 | 0.291 | 0.252 | 0.296 | 0.234 | 0.284 | 0.597 | 0.539 | 0.551 | 0.527 | 0.612 | 0.495 | 0.634 | 0.573 | 0.524 | 0.542
HCC-366 | 1.04 | 1.15 | 1.14 | 0.975 | 1.03 | 0.169 | 0.118 | 0.119 | 0.0858 | 0.113 | 0.361 | 0.487 | 0.329 | 0.276 | 0.328 | 0.526 | 0.62 | 0.35 | 0.574 | 0.586
EKVX | 0.906 | 0.94 | 0.908 | 0.878 | 0.966 | 0.361 | 0.42 | 0.389 | 0.46 | 0.325 | 0.69 | 0.811 | 0.709 | 0.819 | 0.542 | 0.83 | 1.06 | 0.819 | 1.12 | 0.701
NCI-H1755 | 1.04 | 1.05 | 1.02 | 0.993 | 0.993 | 0.624 | 0.607 | 0.637 | 0.638 | 0.622 | 0.85 | 0.991 | 0.815 | 0.652 | 0.662 | 0.85 | 1.09 | 0.971 | 0.848 | 0.802
NCI-H647 | 1.32 | 1.35 | 1.2 | 1.15 | 1.1 | 0.351 | 0.432 | 0.257 | 0.279 | 0.324 | 0.544 | 0.917 | 0.826 | 0.978 | 0.538 | 1.38 | 1.18 | 1.19 | 1.12 | 0.912
LC-2-ad | 0.576 | 0.485 | 0.432 | 0.368 | 0.284 | 0.438 | 0.503 | 0.408 | 0.41 | 0.434 | 0.82 | 0.845 | 0.744 | 0.703 | 0.665 | 0.443 | 0.46 | 0.44 | 0.504 | 0.412
HCC-827 | 1.06 | 1.05 | 0.97 | 0.975 | 0.868 | 0.444 | 0.395 | 0.433 | 0.402 | 0.366 | 0.906 | 0.674 | 0.775 | 0.781 | 0.821 | 0.894 | 0.939 | 0.902 | 0.94 | 0.915
HCC-78 | 0.673 | 0.714 | 0.667 | 0.644 | 0.863 | 0.401 | 0.483 | 0.414 | 0.435 | 0.413 | 0.425 | 0.523 | 0.513 | 0.402 | 0.459 | 0.317 | 0.308 | 0.375 | 0.305 | 0.33
NCI-H2085 | 1.09 | 1.13 | 0.961 | 0.949 | 0.924 | 0.865 | 0.834 | 0.728 | 0.771 | 0.767 | 0.672 | 0.804 | 0.69 | 0.719 | 0.692 | 0.863 | 0.891 | 0.831 | 0.791 | 0.74
PC-14 | 1.12 | 1.11 | 0.948 | 0.841 | 0.809 | 0.626 | 0.778 | 0.649 | 0.576 | 0.66 | 0.882 | 0.844 | 0.643 | 0.741 | 0.636 | 0.912 | 1.04 | 1.04 | 0.946 | 0.841
A-427 | 0.959 | 0.877 | 0.882 | 0.933 | 0.816 | 0.203 | 0.202 | 0.193 | 0.202 | 0.183 | 0.861 | 0.81 | 0.83 | 0.746 | 0.903 | 0.855 | 0.86 | 0.761 | 0.798 | 0.848
H3255 | 0.528 | 0.473 | 0.534 | 0.5 | 0.543 | 0.696 | 0.612 | 0.578 | 0.731 | 0.618 | 0.759 | 0.913 | 0.843 | 0.787 | 0.869 | 0.882 | 0.92 | 0.958 | 0.989 | 0.959
HCC-44 | 0.987 | 1.06 | 0.969 | 1.05 | 0.871 | 1.34 | 1.07 | 0.925 | 0.842 | 0.82 | 1.09 | 1.05 | 0.971 | 1.04 | 1.16 | 0.766 | 0.82 | 0.824 | 0.782 | 0.776
